The text below walks through data of PMC4169866 (Investigational New Drugs, 2014).

Structures can show the parent of a compound that is named as a salt.

One assay relates to Calu-6 lung xenografts. Put plainly: Subcutaneous Calu-6 xenograft antitumor activity. Type of assay: in vivo, mice. Particulars: 50 mg/kg LY2835219 oral, 60 or 150 mg/kg gemcitabine i.p. The protocol:
(§1) All animal studies were performed in accordance with American Association for Laboratory Animal Care institutional guidelines, and all protocols were approved by the Eli Lilly and Company Animal Care and Use Committee. Tumor cell lines were grown, harvested, and resuspended in a 1:1 mixture of serum-free media and matrigel (BD Biosciences), and 5 × 10^6 cells were injected subcutaneously in the rear flank of 5-to-6-week-old CD1 nu/nu female mice (Charles River Laboratories for MV4-11, mice from Harlan Laboratories for others).
(§2) When the mean tumor volume was approximately 150–300 mm^3, animals were randomized by tumor volume and the compound was administered. […] Gemcitabine was formulated in saline and administered by intraperitoneal injection. Tumor volume and body weight were measured twice weekly. When tumors were collected for biomarker analysis, the animals were asphyxiated with CO2 and the xenograft tumors excised, flash frozen in liquid nitrogen, and stored at −80 °C until analyzed. For analysis, tumor volume data were transformed to a log scale to equalize variance across time and treatment groups. The log volume data were analyzed with a 2-way repeated measures analysis of variance by time and treatment using the MIXED procedure in SAS software (version 9.2). The correlation model for the repeated measures was spatial power. […]

Assay [1] has as its system RRM1 expression in Calu-6 xenografts. Put plainly: Western blot of RRM1 in Calu-6 xenograft tumors. Type of assay: in vivo, mice. Particulars: 150 mg/kg dose, Calu-6 tumors 24 h after last dose. The protocol:
(§3) When the mean tumor volume was approximately 150–300 mm^3, animals were randomized by tumor volume and the compound was administered. […] Gemcitabine was formulated in saline and administered by intraperitoneal injection. Tumor volume and body weight were measured twice weekly. When tumors were collected for biomarker analysis, the animals were asphyxiated with CO2 and the xenograft tumors excised, flash frozen in liquid nitrogen, and stored at −80 °C until analyzed. For analysis, tumor volume data were transformed to a log scale to equalize variance across time and treatment groups. The log volume data were analyzed with a 2-way repeated measures analysis of variance by time and treatment using the MIXED procedure in SAS software (version 9.2). The correlation model for the repeated measures was spatial power. Treated groups are compared to the control group at each time point.

The subject of a further assay is MV4-11 AML xenografts. Put plainly: Subcutaneous MV4-11 xenograft antitumor activity. The format is in vivo, mice. Particulars: 50 mg/kg qdx21, day 49. On the procedure: as §1, §2
For assay [2], the system named is U87 MG glioblastoma xenografts. Put plainly: Subcutaneous U87 MG xenograft antitumor activity. The settings on record: 50 mg/kg qdx21, day 31. The format is in vivo, mice. On the procedure:
as §1, §2

In assay [3] the test system is Colo-205 colorectal xenografts. Put plainly: Subcutaneous colo-205 xenograft antitumor activity. Type of assay: in vivo, mice. Particulars: Colo-205 colorectal. The protocol:
as §1, §3

The test system of a further assay is H460 lung xenografts. Put plainly: Subcutaneous H460 xenograft antitumor activity. Type of assay: in vivo, mice. The settings on record: 50 mg/kg qdx21, day 35. On the procedure: as §1, §2
The next assay concerns Jeko1 MCL xenografts. Put plainly: Subcutaneous Jeko1 xenograft antitumor activity. Type of assay: in vivo, mice. The settings on record: 100 mg/kg, day 45. The protocol:
as §1, §2

Another assay relates to colo-205 cells. Put plainly: DNA content / G1 arrest assay, colo-205 (Acumen). Particulars: for 2N cell population / 4N cell population / S cell population: Colo-205 cells. Type of assay: cell-based, human. The protocol:
Details for the cellular assays are provided in the supplemental materials. Briefly, image-based assays (Acumen Explorer, TPP LabTech) were used for compound screening. […] After treatment, the cells were washed, fixed and stained with antibodies to detect phosphoproteins and Propidium Iodide to monitor DNA content. The plates were then analyzed on an Acumen Explorer (TTP Labtech). The IC50 and EC50 values are determined by curve fitting to a 4-parameter logistic for each output using ACTIVITY BASE™ software.
Fixed cells are blocked with 1% bovine serum albumin (BSA, Amersham cat # RPN412V) for 30 minutes. […] Image analysis is based on cellular fluorescent signals for identifying cells in different subpopulations. Assay outputs are a percentage of each identified subpopulations; percent phosphoRB positive, percent 2 N, and percent 4 N. The IC50 and EC50 values are determined by curve fitting to a 4-parameter logistic for each output using ACTIVITY BASE™.

For another assay, the system named is pCTD (pSer2) U2OS. Put plainly: Cellular assay for inhibition of RNA polymerase CTD (Ser2) phosphorylation (pCTD), U2OS. The format is cell-based. The settings on record: Homo sapiens, n=1.
The next assay has as its system U2OS cells. Put plainly: DNA content (cell cycle) in U2OS phenotypic assay. Type of assay: cell-based, human. On the procedure: U20S cells are cultured in McCoy's 5A modified media (Invitrogen), supplemented with 10% FBS and plated in 96-well, flat-bottom plates at a density of 5,000 cells/well for incubation overnight. Compounds in DMSO stock solution are diluted serially 1:3 in McCoy's 5A media and incubated with cells for 16 hours for multiplexing pCTD/DNA content readouts. Cells are fixed with Prefer (Anatech LTD, MI) for 30 minutes at room temperature and permeated with 0.1% Triton-X 100 in PBS or cold methanol (-20°C) for 15 minutes, respectively. After blocking with 1% BSA/PBS for 30 min, cells are incubated with primary antibody (CTD p-Ser2, Covance) at 1:1000 dilution in 1% BSA/PBS containing 50 ug/ml RNAse ([…], Sigma) at 4°C overnight. […] Table S1 and Figure S1.

Experimental for pCTD (pSer2) U2OS: U20S cells are cultured in McCoy’s 5A modified media (Invitrogen), supplemented with 10% FBS and plated in 96-well, flat-bottom plates at a density of 5,000 cells/well for incubation overnight. Compounds in DMSO stock solution are diluted serially 1:3 in McCoy’s 5A media and incubated with cells for 16 hours for multiplexing pCTD/DNA content readouts. Cells are fixed with Prefer (Anatech LTD, MI) for 30 minutes at room temperature and permeated with 0.1% Triton-X 100 in PBS or cold methanol (-20°C) for 15 minutes, respectively. After blocking with 1% BSA/PBS for 30 min, cells are incubated with primary antibody (CTD p-Ser2, Covance) at 1:1000 dilution in 1% BSA/PBS containing 50 ug/ml RNAse (R6513, Sigma) at 4°C overnight. […] The IC50 and EC50 values are determined by curve fitting to a 4-parameter logistic for each output using ACTIVITY BASE™.
The assay detects CDK9 activity through both the inhibition of phosphorylation ser2 of the C-terminal repeat domain (pCTD) of RNA polymerase II, and a CDK9-modulated G2/M arrest [accumulation of cells with 4N DNA content]

In the case of `Nc1ccn([C@@H]2O[C@H](CO)[C@@H](O)C2(F)F)c(=O)n1` [gemcitabine, 2′,2′-difluorodeoxycytidine hydrochloric salt], the “tumor growth inhibition, compound alone” value in the assay on Calu-6 lung xenografts was “active in inhibiting tumor growth”. For the same compound, in [1], the “increase of RRM1 compared to vehicle” value is 75%.
Turning to `CC(=O)c1c(C)c2cnc(Nc3ccc(N4CCNCC4)cn3)nc2n(C2CCCC2)c1=O` [PD0332991, 6-Acetyl-8-cyclopentyl-5-methyl-2-[[5-(1-piperazinyl)-2-pyridinyl]amino] pyrido[2,3-d] pyrimidin-7 (8H)-one], the “Percent delta T/C, percent regression” value with MV4-11 AML xenografts was 16%; in assay [2], 26%; in assay [3] (50 mg/kg (schedule not given), day 39), 7%; in [3] (100 mg/kg qdx21, day 35), −1%; with H460 lung xenografts it was 60%; with Jeko1 MCL xenografts it was 12%.
As usually defined, the EC50 is the concentration needed to bring the measured effect to its halfway point. In general, IC50 refers to the midpoint of a concentration-inhibition curve. Turning to `CN1CC[C@H](c2c(O)cc(O)c3c(=O)cc(-c4ccccc4Cl)oc23)[C@H](O)C1` [Flavopiridol], the 2N cell population came out at 54% with colo-205 cells (2.2 µM), 50% in the assay on colo-205 cells (6.6 µM), 22% with U2OS cells (2.2 µM) and 23% with U2OS cells (6.6 µM). Besides, the 4N cell population is listed as 44% in the assay on colo-205 cells (2.2 µM), 49% in the assay with colo-205 cells (6.6 µM), 74% in the assay on U2OS cells (2.2 µM) and 72% with U2OS cells (6.6 µM). For the same compound, the S cell population in the assay with colo-205 cells (2.2 µM) is given as 2%; with colo-205 cells (6.6 µM) it was 1%; with U2OS cells (2.2 µM), 4%; with U2OS cells (6.6 µM), 5%. Further, the EC50 in the assay on colo-205 cells (Homo sapiens, COLO 205, read-out: G1 arrest in Colo205 (increase in cells with 2N DNA content) EC50) was over 20000 nM. Further, the IC50 with pCTD (pSer2) U2OS is 147 nM.
